# “Also recorded” adds a separate entry of the source. Counter-ions that a name gives are not always drawn.
# What was measured:
# [1] = Formulation of stable concentrated imatinib solutions in different solvents (Examples 1-4); details: room temperature, one hour
# [2] = In vitro nebulization feasibility, Medspray wet aerosol inhaler single nozzle unit (Example 5); format: physicochemical; details: Medspray nozzle pore size 1.9 μm
# Protocol: In an in vitro nebulization study, the feasibility to nebulize different imatinib mesylate solutions by the Medspray™ wet aerosol inhaler was evaluated. A 1 ml syringe was filled with the formulation to be tested, a single nozzle unit of Medspray™ wet aerosol inhaler was then fixed on the syringe by a luer adapter. The nozzle pore size was 1.9 μm. The aerosol was produced by pressing the piston of the syringe manually, thereby forcing the solution through the nozzle pores. […] When using ethanol 10% (v/v) or glycerol 1% (v/v), solutions with a concentration of 240 mg/ml were nebulizable; a mixture of ethanol 10% (v/v) and glycerol 1% (v/v) further increased the maximum imatinib concentration of the solution to 250 mg/ml capable of being nebulized.
# [3] = cited from earlier work
# PAH-patients = details: oral, cited from earlier work
# PAH patients = details: oral; phase II, 59 patients; cited from earlier work
# [4] = 24-week trial, 202 PAH-patients
smiles,measurement,setting,value
"Cc1ccc(NC(=O)c2ccc(CN3CCN(C)CC3)cc2)cc1Nc1nccc(-c2cccnc2)n1 [Imatinib free base, 4-[(4-methylpiperazin-1-yl)methyl]-N-(4-methyl-3-{[4-(pyridin-3-yl)pyrimidin-2-yl]amino}phenyl)benzamide]",imatinib concentration of stable solution that could be formulated,"[1]; a. dest, NaCl 0.9%, citrate buffer 5%, urea 5%, ethanol 10%, glycerol 1%",≤ 5 mg/mL
Cc1ccc(NC(=O)c2ccc(CN3CCN(C)CC3)cc2)cc1Nc1nccc(-c2cccnc2)n1 [Imatinib mesylate],maximum concentration capable of being nebulized,[2]; solvent a. dest,210 mg/mL
same,maximum imatinib concentration capable of being nebulized,[2]; solvent ethanol 10% (v/v) and glycerol 1% (v/v),250 mg/mL
same,concentration nebulizable,[2]; solvent ethanol 10% (v/v),240000 µg/mL
same,concentration nebulizable,[2]; solvent glycerol 1% (v/v),240000 µg/mL
same,inter-subject variation in pharmacokinetics,[3]; in vivo,high
same,bioavailability,[3]; oral,almost complete
same,6-minute walk distance (primary outcome),PAH-patients; [4],significantly improving; also recorded: significantly improved
same,pulmonary vascular resistance,PAH-patients; [4],significantly improved
same,change from baseline in the 6-minute-walk distance (primary endpoint),PAH patients,not meeting the primary endpoint
same,pulmonary hemodynamics (secondary endpoint),PAH patients,significantly improved
same,stability of resulting solutions,[1]; higher ionic strength solvents of Example 3,not stable
same,concentration of stable imatinib mesylate solution that could be formulated,"[1]; higher ionic strength solvents: NaCl 0.9%, HCl/NaOH, citrate, HEPES, trometamol, PBS buffer",< 50000 µg/mL
same,concentration of stable imatinib mesylate solution that could be formulated,"[1]; low ionic strength solvents of Example 4 (a. dest, ethanol, urea, glycerol, mannitol, glycols, ectoin)",up to 500 mg/ml
"Cc1ccc(NC(=O)c2ccc(CN3CCN(C)CC3)cc2)cc1Nc1nccc(-c2cccnc2)n1 [imatinib, 4-[(4-methylpiperazin-1-yl)methyl]-N-(4-methyl-3-{[4-(pyridin-3-yl)pyrimidin-2-yl]amino}phenyl)benzamide]","adverse events, side effects and discontinuation",PAH-patients; study and open-label extension phase,"severe adverse events, significant side effects, and a high discontinuation rate"

# From patent publication US20250127716A1, “INHALED IMATINIB FOR TREATMENT OF PULMONARY HYPERTENSION” (JUSTUS-LIEBIG-UNIVERSITAET GIESSEN, priority 2022, published 2025)
